# Source: US10428014B2, “Base generator, base-reactive composition containing said base generator, and base generation method” (FUJIFILM Wako Pure Chemical Corporation, priority 2013, dated 2019)
# Assay: Heat resistance test (TG-DTA, initiation temperature of 5% weight decrease)
# Assay type: physicochemical
# Conditions: 10 mg, 30° C. to 500° C., 10° C./min
row,Molecule,Decomposition initiation temperature [°C]
1,"1,2-dicyclohexyl-4,4,5,5-tetramethylbiguanidium 2-(9-oxoxanthene-2-yl)propionate [formula (4)]",199
2,"1,2-diisopropyl-4,4,5,5-tetramethylbiguanidium N-phthaloylglycine [formula (8)]",206
3,"1,2-diisopropyl-4,4,5,5-tetramethylbiguanidium 2-(9-oxoxanthene-2-yl)propionate [formula (7)]",200

# Next, values leading:
row,Decomposition initiation temperature [°C],Molecule
1,204,"1,2-diisopropyl-4,4,5,5-tetramethylbiguanidium 8(7H)-ethylidene-4-methoxy-5,6-dihydronaphthalene-1-carboxylate [formula (5)]"
2,205,"1,2-dicyclohexyl-4,4,5,5-tetramethylbiguanidium 8(7H)-ethylidene-4-methoxy-5,6-dihydronaphthalene-1-carboxylate [formula (6)]"
3,161,"CC(C(=O)O)c1cccc(C(=O)c2ccccc2)c1 (stereo not shown) [formula (101), guanidium 2-(3-benzoylphenyl)propionate, reference compound]"

# Assay: Exposure curing test using bisphenol A-type diglycidyl ether
# Conditions: 10 mg compound, 100 mg jER 828, 50 mg KarenzMT PE1
row,Dissolution into the mixed solution of the bisphenol A-type diglycidyl ether oligomer and pentaerythritol tetrakis(3-mercaptobutyrate),Molecule
1,did not dissolve,"CC(C(=O)O)c1cccc(C(=O)c2ccccc2)c1 (stereo not shown) [formula (101), guanidium 2-(3-benzoylphenyl)propionate, reference compound]"
